Results: patent US11066447B2, “Aureobasidium derivatives and methods of synthesis” (AureoGen Biosciences, Inc., priority 2016, dated 2021)
In brackets after ≈: the same amount, converted by molar mass. Where two headings read alike, the source gives them in different places. Numbered stars: 1 amine (or outer) side, 2 acyl side, 3 side chain; on linkers, the order of the positions; unused ones are H or OH. Square brackets hold non-standard residues; d marks the D form. Peptide text beside a SMILES is read from it. X26 = CC1CCN(c2cnc(-c3cccc(C[C@@H](C(=O)[*:2])N(C)[*:1])c3)cn2)CC1; X20 = CN([C@@H](Cc1cccc(-c2cnn(C3CCCC3)c2)c1)C(=O)[*:2])[*:1]; X12 = CN(C)c1cc(-c2cccc(C[C@@H](C(=O)[*:2])N(C)[*:1])c2)ccn1; X16 = CC(C)c1cc(-c2cccc(C[C@@H](C(=O)[*:2])N(C)[*:1])c2)ccn1; X17 = CN([C@@H](Cc1cccc(-c2cnc3ccccc3c2)c1)C(=O)[*:2])[*:1]; X22 = CN([C@@H](Cc1cccc(-c2cncc3ccccc23)c1)C(=O)[*:2])[*:1]; X25 = CN([C@@H](Cc1cccc(-c2ccc3cccnc3c2)c1)C(=O)[*:2])[*:1]; Hmp(2R,3S) = CC[C@H](C)[C@@H](O)C(=O)O; NMeVal(β-OH) = CN[C@H](C(=O)O)C(C)(C)O; NMeV = CN[C@H](C(=O)O)C(C)C

Key:
A. fumigatus MMX 5944 = assay: MIC/MEC assay (CLSI microdilution); format: cell-based; conditions: Aspergillus fumigatus, MMX5944, 48 h; for minimal effective concentration: RPMI plus 0.002% Tween-80; for MIC: RPMI plus 0.002% Tween-80, read-out: MIC
Procedure, shortened: (§1)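 CLSI broth microdilution in RPMI-1640 with 0.002% Tween-80; MMX 5280 was also tested without Tween-80. AbA compounds were two-fold serially diluted in 95% ethanol. Aspergillus spore inoculum was approx. 0.2-2.5×10^4 CFU/mL final.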

[1] = test system: A. fumigatus from Aureogen; assay: MIC/MEC assay (CLSI microdilution); format: cell-based; conditions: Aspergillus fumigatus, 48 h; for minimal effective concentration: RPMI plus 0.002% Tween-80; for MIC: RPMI plus 0.002% Tween-80, read-out: MIC
Procedure, shortened: as §1

[2] = test system: A. fumigatus MMX 6781 ATCC MYA-4609; assay: MIC/MEC assay (CLSI microdilution); format: cell-based
Procedure, shortened: as §1

[3] = test system: A. fumigatus MMX 6782 ATCC 13073; assay: MIC/MEC assay (CLSI microdilution); format: cell-based; conditions: Aspergillus fumigatus, ATCC13073, 48 h; for minimal effective concentration: RPMI plus 0.002% Tween-80, read-out: MEC; for MIC: RPMI plus 0.002% Tween-80, read-out: MIC
Procedure, shortened: as §1

A. flavus MMX 5948 = assay: MIC/MEC assay (CLSI microdilution); format: cell-based; conditions: Aspergillus flavus, MMX5948, 48 h; for minimal effective concentration: RPMI plus 0.002% Tween-80; for MIC: RPMI plus 0.002% Tween-80, read-out: MIC
Procedure, shortened: as §1

[4] = test system: A. niger MMX 0624 ATCC 16888; assay: MIC/MEC assay (CLSI microdilution); format: cell-based; conditions: Aspergillus niger, ATCC16888, 48 h; for minimal effective concentration: RPMI plus 0.002% Tween-80, read-out: MEC; for MIC: RPMI plus 0.002% Tween-80, read-out: MIC
Procedure, shortened: as §1

[5] = test system: C. albicans MMX 2000 ATCC 10231; assay: MIC assay (CLSI microdilution); format: cell-based; conditions: Candida albicans, ATCC10231, RPMI plus 0.002% Tween-80; read-out: MIC
[6] = test system: C. neoformans MMX 0634 ATCC 90112; assay: MIC assay (CLSI microdilution); format: cell-based; conditions: Cryptococcus neoformans, ATCC90112, RPMI plus 0.002% Tween-80; read-out: MIC
[7] = test system: A. fumigatus MMX 5280 ATCC MYA-3626; assay: MIC/MEC assay (CLSI microdilution); format: cell-based, Aspergillus fumigatus; conditions: for minimal effective concentration / MIC: Aspergillus fumigatus, 48 h
Procedure, shortened: as §1

[8] = test system: C. parapsilosis MMX 2323 ATCC 22019; assay: MIC assay (CLSI microdilution); format: cell-based, Candida parapsilosis; conditions: read-out: MIC
Procedure, shortened: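 Broth microdilution MIC testing of Candida parapsilosis ATCC 22019 followed CLSI methods in RPMI-1640, with or without 0.002% Tween-80. Yeast grown 48 hours at 35° C on Sabouraud dextrose agar was suspended to a 0.5 McFarland standard and diluted 1:100 to roughly 0.5-2.5×10^3 CFU/mL. The MIC was the lowest concentration preventing visible growth.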

[9] = RPMI plus 0.002% Tween-80, 48 hr
[10] = RPMI plus 0.002% Tween-80, read-out: MEC
[11] = RPMI plus 0.002% Tween-80, read-out: MIC
[12] = Without Tween-80, read-out: MEC
[13] = Without Tween-80, read-out: MIC
[14] = ATCC22019, RPMI plus 0.002% Tween-80
[15] = Aspergillus fumigatus, 48 h, RPMI plus 0.002% Tween-80, read-out: MIC
[16] = Aspergillus fumigatus, RPMI plus 0.002% Tween-80, 48 hr

| Compound | MIC (A. fumigatus MMX 5944) [µg/mL] | MIC [1] [µg/mL] | MIC [3] [µg/mL] | MIC (A. flavus MMX 5948) [µg/mL] | MIC [4] [µg/mL] | MIC [5] [µg/mL] | MIC [6] [µg/mL] | MIC [7, 11] [µg/mL] | MIC [7, 13] [µg/mL] | MIC [8, 14] [µg/mL] | MIC ([8]; ATCC22019, Without Tween-80) [µg/mL] | MIC [2, 15] [µg/mL] | minimal effective concentration (A. fumigatus MMX 5944) [µg/mL] | minimal effective concentration [1] [µg/mL] | minimal effective concentration [3] [µg/mL] | minimal effective concentration (A. flavus MMX 5948) [µg/mL] | minimal effective concentration [4] [µg/mL] | minimal effective concentration [7, 10] [µg/mL] | minimal effective concentration [7, 12] [µg/mL] | minimal effective concentration [2, 16] [µg/mL] | also measured |
| --- | --- | --- | --- | --- | --- | --- | --- | --- | --- | --- | --- | --- | --- | --- | --- | --- | --- | --- | --- | --- | --- |
| CC[C@H](C)[C@@H]1NC(=O)[C@@H]2CCCN2C(=O)[C@H](Cc2cccc(-c3ccnc(N(C)C)c3)c2)N(C)C(=O)[C@H](Cc2ccccc2)NC(=O)[C@H](C(C)C)N(C)C(=O)[C@@H]([C@@H](C)CC)OC(=O)[C@H](C(C)(C)O)N(C)C(=O)[C@H](CC(C)C)NC(=O)[C@H](C(C)C)N(C)C1=O [Compound 22] (cyclo(F[X12]PI[NMeV]L[NMeVal(β-OH)][Hmp(2R,3S)][NMeV])) | > 64 | > 64 | > 64 | > 64 | 0.5 | 0.03 | 0.25 | > 64 | > 64 | 0.06 | 1 (≈ 0.819 µM) | > 64 | > 64 | > 64 | > 64 | > 64 | 0.25 | > 64 | > 64 | > 64 | – |
| CC[C@H](C)[C@@H]1NC(=O)[C@@H]2CCCN2C(=O)[C@H](Cc2cccc(-c3ccnc(C(C)C)c3)c2)N(C)C(=O)[C@H](Cc2ccccc2)NC(=O)[C@H](C(C)C)N(C)C(=O)[C@@H]([C@@H](C)CC)OC(=O)[C@H](C(C)(C)O)N(C)C(=O)[C@H](CC(C)C)NC(=O)[C@H](C(C)C)N(C)C1=O [Compound 16] (cyclo(F[X16]PI[NMeV]L[NMeVal(β-OH)][Hmp(2R,3S)][NMeV])) | > 64 | > 64 | > 64 | 1 | 0.5 | 0.03 | 0.12 | > 64 | > 64 | 0.12 | 1 (≈ 0.819 µM) | > 64 | 2 | 2 | 1 | 0.5 | 0.5 | 2 | 2 | 2 | – |
| CC[C@H](C)[C@@H]1NC(=O)[C@@H]2CCCN2C(=O)[C@H](Cc2cccc(-c3cnn(C4CCCC4)c3)c2)N(C)C(=O)[C@H](Cc2ccccc2)NC(=O)[C@H](C(C)C)N(C)C(=O)[C@@H]([C@@H](C)CC)OC(=O)[C@H](C(C)(C)O)N(C)C(=O)[C@H](CC(C)C)NC(=O)[C@H](C(C)C)N(C)C1=O [Compound 12] (cyclo(F[X20]PI[NMeV]L[NMeVal(β-OH)][Hmp(2R,3S)][NMeV])) | > 64 | > 64 | > 64 | > 64 | > 64 | 0.03 | 0.5 | > 64 | > 64 | 0.12 | 1 (≈ 0.809 µM) | > 64 | > 64 | > 64 | > 64 | > 64 | > 64 | > 64 | > 64 | > 64 | – |
| CC[C@H](C)[C@@H]1NC(=O)[C@@H]2CCCN2C(=O)[C@H](Cc2cccc(-c3cnc4ccccc4c3)c2)N(C)C(=O)[C@H](Cc2ccccc2)NC(=O)[C@H](C(C)C)N(C)C(=O)[C@@H]([C@@H](C)CC)OC(=O)[C@H](C(C)(C)O)N(C)C(=O)[C@H](CC(C)C)NC(=O)[C@H](C(C)C)N(C)C1=O [Compound 27] (cyclo(F[X17]PI[NMeV]L[NMeVal(β-OH)][Hmp(2R,3S)][NMeV])) | > 64 | > 64 | > 64 | 0.5 | 0.06 | 0.015 | 0.12 | > 64 | > 64 | 0.12 | 1 (≈ 0.814 µM) | > 64 | > 64 | > 64 | > 64 | 0.12 | 0.06 | > 64 | > 64 | > 64 | – |

Second part, led by results:

| MIC (A. fumigatus MMX 5944) [µg/mL] | MIC [1] [µg/mL] | MIC [3] [µg/mL] | MIC (A. flavus MMX 5948) [µg/mL] | MIC [4] [µg/mL] | MIC [5] [µg/mL] | MIC [6] [µg/mL] | MIC [7, 11] [µg/mL] | MIC [7, 13] [µg/mL] | MIC [8, 14] [µg/mL] | MIC ([8]; ATCC22019, Without Tween-80) [µg/mL] | MIC [2, 15] [µg/mL] | Compound | minimal effective concentration (A. fumigatus MMX 5944) [µg/mL] | minimal effective concentration [1] [µg/mL] | minimal effective concentration [3] [µg/mL] | minimal effective concentration (A. flavus MMX 5948) [µg/mL] | minimal effective concentration [4] [µg/mL] | minimal effective concentration [7, 10] [µg/mL] | minimal effective concentration [7, 12] [µg/mL] | minimal effective concentration [2, 16] [µg/mL] | also measured |
| --- | --- | --- | --- | --- | --- | --- | --- | --- | --- | --- | --- | --- | --- | --- | --- | --- | --- | --- | --- | --- | --- |
| > 64 | > 64 | > 64 | > 64 | 0.5 | 0.06 | 0.25 | > 64 | > 64 | 0.25 | 1 (≈ 0.783 µM) | – | CC[C@H](C)[C@@H]1NC(=O)[C@@H]2CCCN2C(=O)[C@H](Cc2cccc(-c3cnc(N4CCC(C)CC4)cn3)c2)N(C)C(=O)[C@H](Cc2ccccc2)NC(=O)[C@H](C(C)C)N(C)C(=O)[C@@H]([C@@H](C)CC)OC(=O)[C@H](C(C)(C)O)N(C)C(=O)[C@H](CC(C)C)NC(=O)[C@H](C(C)C)N(C)C1=O [Compound 11] (cyclo(F[X26]PI[NMeV]L[NMeVal(β-OH)][Hmp(2R,3S)][NMeV])) | 2 | 2 | 0.5 | 1 | 0.5 | 8 | 4 | – | MEC [2, 9]: 8 µg/mL; MIC [2, 9]: 64 µg/mL |
| > 64 | > 64 | > 64 | > 64 | 0.12 | 0.008 | 0.06 | > 64 | > 64 | 0.06 | 1 (≈ 0.814 µM) | > 64 | CC[C@H](C)[C@@H]1NC(=O)[C@@H]2CCCN2C(=O)[C@H](Cc2cccc(-c3cncc4ccccc34)c2)N(C)C(=O)[C@H](Cc2ccccc2)NC(=O)[C@H](C(C)C)N(C)C(=O)[C@@H]([C@@H](C)CC)OC(=O)[C@H](C(C)(C)O)N(C)C(=O)[C@H](CC(C)C)NC(=O)[C@H](C(C)C)N(C)C1=O [Compound 29] (cyclo(F[X22]PI[NMeV]L[NMeVal(β-OH)][Hmp(2R,3S)][NMeV])) | > 64 | > 64 | – | > 64 | 0.12 | > 64 | > 64 | > 64 | – |
| 0.5 | 1 | 1 | 1 | 0.06 | 0.03 | 0.12 | 1 | 2 (≈ 1.63 µM) | 0.12 | 1 (≈ 0.814 µM) | 1 | CC[C@H](C)[C@@H]1NC(=O)[C@@H]2CCCN2C(=O)[C@H](Cc2cccc(-c3ccc4cccnc4c3)c2)N(C)C(=O)[C@H](Cc2ccccc2)NC(=O)[C@H](C(C)C)N(C)C(=O)[C@@H]([C@@H](C)CC)OC(=O)[C@H](C(C)(C)O)N(C)C(=O)[C@H](CC(C)C)NC(=O)[C@H](C(C)C)N(C)C1=O [Compound 10] (cyclo(F[X25]PI[NMeV]L[NMeVal(β-OH)][Hmp(2R,3S)][NMeV])) | 0.12 | 0.25 | 0.25 | 0.5 | 0.06 | 0.25 | – | 0.25 | MEC ([7]; Without Tween-80, 48 hr): 1 µg/mL |
